# Data reported in patent US20060275812A1, “Assay for agonists and antagonists of ion channels and for regulators of genetic expression” (University of Pittsburgh of the Commonwealth System of …, priority 2005, published 2006).
# Tested on: vTT infected 7b cells
# Experiment: Detection of apoptosis (DePsipher MPT; CaspACE activated caspases)
# Format: cell-based
# Details: overnight capsaicin (3 μm) stimulation
# Protocol: Detection of Apoptosis. The DePsipher kit (R&D systems, Minneapolis, Minn.) was used to detect the initiation of mitochondrial permeability transition (MPT) in 7b cells. Briefly, vTT or QOZ infected cells (12 hpi, 0.1 PFU/cell) were incubated with 3 μm capsaicin for one hour at 37° C. in a 5% CO2 incubator. Cells were then loaded with 1 μl DePsipher/ml in pre-warmed culture media for 15-20 min at 37° C. in a 5% CO2 incubator. Following two washes in prewarmed media, cells were immediately imaged using an inverted fluorescence microscope (Carl Zeiss Inc.). For activated caspase detection, the CaspACE FITC-VAD-FMK In-Situ Marker kit (Promega, Madison, Wis.) was used. Briefly, CaspACE FITC-VAD-FMK was added to a final concentration of 10 μM to 7b cells infected with vTT or QOZ virus (12 hpi, 0.3 PFU/cell). Cells were incubated for 20 minutes at 37° C. in a 5% CO2 incubator. Following two washes in PBS, cells were fixed for 30 minutes in 10% formalin, washed three times with PBS and imaged using an inverted fluorescence microscope (Carl Zeiss Inc.).
smiles,measurement,value
COc1cc(CNC(=O)CCCC/C=C/C(C)C)ccc1O [capsaicin],activated caspases,positive
